According to PubChem BioAssay AID1259408 (Genetic Toxicology Data Bank (GENE-TOX), 2018):
Calls of active or inactive are those of the source. How the calls were made is not given here.

System: GENE-TOX genotoxicity assays, various organisms and cells
Experiment: GENE-TOX mutagenicity studies
Conditions: for call: Assay Type: In vivo carcinogenicity studies
[1] = Species/Cell Type: Salmonella typhimurium (one or more of the five standard strains: TA98, TA100, TA1535, TA1537, and TA1538), Assay Type: Histidine reverse gene mutation, Ames assay, Assay Code: SAL+, Evaluation Type: Evaluation A (Pre-1980)
[2] = Species/Cell Type: Nonhuman, Assay Code: CCG+, Evaluation Type: Evaluation A (Pre-1980)
[3] = Species/Cell Type: Escherichia coli polA (W3119 vs P3478), Assay Type: Rec-assay, DNA effects (bacterial DNA repair), Assay Code: RE1T, Evaluation Type: Evaluation A (Pre-1980)
[4] = Species/Cell Type: Human diploid fibroblasts, Assay Type: Unscheduled DNA synthesis (UDS) in vitro, DNA effects, Assay Code: UDH-, Evaluation Type: Evaluation A (Pre-1980)
[5] = Species/Cell Type: Salmonella typhimurium (one or more of the five standard strains: TA98, TA100, TA1535, TA1537, and TA1538), Assay Type: Histidine reverse gene mutation, Ames assay, Assay Code: SAL+*, Activation: With metabolic activation, Evaluation Type: Evaluation A (Pre-1980)
[6] = Species/Cell Type: Salmonella typhimurium (one or more of the five standard strains: TA98, TA100, TA1535, TA1537, and TA1538), Assay Type: Histidine reverse gene mutation, Ames assay, Assay Code: SALT, Evaluation Type: Evaluation A (Pre-1980)
[7] = Species/Cell Type: Mouse lymphoma (L5178Y) cells, Assay Type: Forward gene mutation at the thymidine kinase (TK) locus, chromosome aberrations, Assay Code: L51+, Evaluation Type: Evaluation A (Pre-1980)
[8] = Species/Cell Type: Nonhuman, Assay Type: Sister-chromatid exchange (SCE) in vitro, Assay Code: SC2+, Evaluation Type: Evaluation B (Post-1980)
[9] = Species/Cell Type: Salmonella typhimurium (one or more of the five standard strains: TA98, TA100, TA1535, TA1537, and TA1538), Assay Type: Histidine reverse gene mutation, Ames assay, Assay Code: SAL-, Evaluation Type: Evaluation A (Pre-1980)

`C=CCCl` was tested, and the mutagenic call (Species/Cell Type: Escherichia coli polA (W3119 vs P3478), Assay Type: Rec-assay, DNA effects (bacterial DNA repair), Assay Code: RE1+, Evaluation Type: Evaluation A (Pre-1980)) was “active; positive”, the mutagenic call (Species/Cell Type: Saccharomyces cerevisiae, Assay Type: Mitotic recombination or gene conversion, Assay Code: YEC+, Evaluation Type: Evaluation A (Pre-1980)) was “active; positive” and the mutagenic call (Species/Cell Type: Saccharomyces cerevisiae, Assay Type: Mitotic recombination or gene conversion, Assay Code: YEH+, Evaluation Type: Evaluation A (Pre-1980)) was “active; positive”.

With `CCOP(=O)(OCC)Oc1nc(Cl)c(Cl)cc1Cl` the mutagenic call (Species/Cell Type: Nonhuman, Assay Type: Sister-chromatid exchange (SCE) in vitro, Assay Code: SC2T, Evaluation Type: Evaluation B (Post-1980)) was “no conclusion” and the mutagenic call (Species/Cell Type: Nonhuman, Assay Type: Sister-chromatid exchange (SCE) in vivo, Assay Code: SC3-, Evaluation Type: Evaluation B (Post-1980)) was “inactive; negative”.

In the case of `CCN(CC)c1ccc2cc3ccc(=[N+](CC)CC)cc-3oc2c1`, the mutagenic call (Species/Cell Type: Drosophila melanogaster, Assay Type: Sex-linked recessive lethal gene mutation, Assay Code: SRL+, Evaluation Type: Evaluation A (Pre-1980)) is reported as “active; positive”.

`[N-]=[N+]=CC(=O)NCC(=O)NN` was tested, and the mutagenic call [1] was “active; positive”.

In the case of `CC(=O)Nc1nc(-c2ccc([N+](=O)[O-])o2)cs1`, the mutagenic call (Species/Cell Type: Bacillus subtilis (H17 vs M45), Assay Type: Rec-assay, spot test, DNA effects (bacterial DNA repair), Assay Code: REW+, Evaluation Type: Evaluation A (Pre-1980)) is reported as “active; positive”, the mutagenic call (Species/Cell Type: Escherichia coli WP2, Assay Type: Tryptophan reverse gene mutation, Assay Code: WP2+, Evaluation Type: Evaluation A (Pre-1980)) is reported as “active; positive” and the mutagenic call (Species/Cell Type: Escherichia coli WP2 UVRA, Assay Type: Tryptophan reverse gene mutation, Assay Code: WPU-, Evaluation Type: Evaluation A (Pre-1980)) is reported as “inactive; negative”. The call [2] was “active; positive”, the mutagenic call (Species/Cell Type: Nonhuman, Assay Type: Sister-chromatid exchange (SCE) in vitro, Assay Code: SC2+D, Dose Response: With dose response, Evaluation Type: Evaluation B (Post-1980)) was “active; positive” and the mutagenic call [1] was “active; positive”.

In the case of `O=[N+]([O-])c1ccc(O/N=C/c2cc(Br)c(O)c(Br)c2)c([N+](=O)[O-])c1`, the mutagenic call (Species/Cell Type: Saccharomyces cerevisiae, Assay Type: Mitotic recombination or gene conversion, Assay Code: YEC-, Evaluation Type: Evaluation A (Pre-1980)) is reported as “inactive; negative”.

`CC(=O)Nc1ccc2c(c1)Cc1cccc(O)c1-2` was tested, and the mutagenic call (Species/Cell Type: Escherichia coli polA (W3110 vs P3478), Assay Type: Rec-assay, DNA effects (bacterial DNA repair), Assay Code: RE2+, Evaluation Type: Evaluation A (Pre-1980)) was “active; positive”, the mutagenic call [3] was “no conclusion” and the mutagenic call [4] was “inactive; negative”. For the same compound, the mutagenic call (Species/Cell Type: Saccharomyces cerevisiae, Assay Type: Mitotic recombination or gene conversion, Assay Code: YEH-, Evaluation Type: Evaluation A (Pre-1980)) was “inactive; negative” and the mutagenic call [5] was “active; positive”.

For `N=c1ccn(O)c2ccccc12`, the mutagenic call (Species/Cell Type: Escherichia coli polA (W3119 vs P3478), Assay Type: Rec-assay, DNA effects (bacterial DNA repair), Assay Code: RE1-, Evaluation Type: Evaluation A (Pre-1980)) was “inactive; negative”, the mutagenic call (Species/Cell Type: Nonhuman, Assay Type: Chromosome aberrations in vitro, Assay Code: CY&+D, Dose Response: With dose response, Evaluation Type: Evaluation A (Pre-1980)) was “active; positive” and the call (Species/Cell Type: Nonhuman, Assay Code: CCGT, Evaluation Type: Evaluation A (Pre-1980)) was “no conclusion”. The mutagenic call (Species/Cell Type: Nonhuman, Assay Type: Sister-chromatid exchange (SCE) in vitro, Assay Code: SC2+D, Dose Response: With dose response, Evaluation Type: Evaluation A (Pre-1980)) was “active; positive”.

For `OCCCCO`, the mutagenic call (Species/Cell Type: Drosophila melanogaster, Assay Type: Sex-linked recessive lethal gene mutation, Assay Code: SRLT, Evaluation Type: Evaluation A (Pre-1980)) was “no conclusion”.

In the case of `Cc1c(C2(c3cc(Br)c(O)c(Br)c3C)OS(=O)(=O)c3ccccc32)cc(Br)c(O)c1Br`, the mutagenic call (Species/Cell Type: Bacillus subtilis (H17 vs M45T), Assay Type: Rec-assay, spot test, DNA effects (bacterial DNA repair), Assay Code: REXT, Evaluation Type: Evaluation A (Pre-1980)) is reported as “no conclusion” and the mutagenic call [6] is reported as “no conclusion”.

In the case of `O=[N+]([O-])c1ccc2ccc3cc4ccccc4c4ccc1c2c34`, the mutagenic call (Species/Cell Type: Chinese hamster ovary (CHO) cells, Assay Type: Forward gene mutation at the HPRT locus, Assay Code: CHO+*, Activation: With metabolic activation, Evaluation Type: Evaluation B (Post-1980)) is reported as “active; positive”.

In the case of `CCN(CCNc1ccc(CO)c2sc3ccccc3c(=O)c12)CC(C)(C)O`, the mutagenic call [7] is reported as “active; positive”.

With `CC(=O)Nc1ccc(O)cc1` the mutagenic call (Species/Cell Type: Human lymphocytes, Assay Type: Sister-chromatid exchange (SCE) in vitro, Assay Code: SCL-, Evaluation Type: Evaluation B (Post-1980)) was “inactive; negative” and the mutagenic call [6] was “no conclusion”.

`CCCCCN(CCCCC)N=O` was tested, and the mutagenic call (Species/Cell Type: Chinese hamster lung (V79) cells, Assay Type: Forward gene mutation at the HPRT or ouabain locus, Assay Code: V79+, Evaluation Type: Evaluation A (Pre-1980)) was “active; positive” and the mutagenic call [5] was “active; positive”.

For `c1ccc2cc3c(cc2c1)-c1cccc2cccc-3c12`, the call [2] was “active; positive”.

For `O=C(Nc1cc(Cl)cc(Cl)c1O)c1c(O)c(Cl)cc(Cl)c1Cl`, the mutagenic call (Species/Cell Type: Mammalian polychromatic erythrocytes, Assay Type: Micronucleus test, chromosome aberrations, Assay Code: MNTT, Evaluation Type: Evaluation B (Post-1980)) was “no conclusion”.

`CCCN(CCC)c1c([N+](=O)[O-])cc(C(F)(F)F)cc1[N+](=O)[O-]` was tested, and the mutagenic call (Species/Cell Type: Bacillus subtilis (H17 vs M45), Assay Type: Rec-assay, spot test, DNA effects (bacterial DNA repair), Assay Code: REWT, Evaluation Type: Evaluation A (Pre-1980)) was “no conclusion”, the mutagenic call (Species/Cell Type: Drosophila melanogaster, Assay Type: Sex-linked recessive lethal gene mutation, Assay Code: SRL-, Evaluation Type: Evaluation A (Pre-1980)) was “inactive; negative” and the mutagenic call (Species/Cell Type: Escherichia coli WP2 UVRA, Assay Type: Tryptophan reverse gene mutation, Assay Code: WPU-*, Activation: With metabolic activation, Evaluation Type: Evaluation A (Pre-1980)) was “inactive; negative”. The mutagenic call [3] was “no conclusion”, the mutagenic call [4] was “inactive; negative” and the mutagenic call (Species/Cell Type: Neurospora crassa, Assay Type: Aneuploidy, chromosome aberrations, Assay Code: NEN+, Evaluation Type: Evaluation A (Pre-1980)) was “active; positive”. The call (Species/Cell Type: Nonhuman, Assay Code: CCG+L, Evaluation Type: Evaluation A (Pre-1980)) was “active; positive”, the mutagenic call [8] was “active; positive” and the mutagenic call (Species/Cell Type: Saccharomyces cerevisiae, Assay Type: Mitotic recombination or gene conversion, Assay Code: YEH+/-*, Activation: With metabolic activation, Evaluation Type: Evaluation A (Pre-1980)) was “inactive; positive without activation, negative with activation”. The mutagenic call [9] was “inactive; negative” and the mutagenic call (Species/Cell Type: Vicia faba, Assay Type: Chromosome aberrations, Assay Code: VIC+, Evaluation Type: Evaluation A (Pre-1980)) was “active; positive”.

With `CC/C(=C(/CC)c1ccc(O)cc1)c1ccc(O)cc1` the mutagenic call [3] was “no conclusion”, the mutagenic call (Species/Cell Type: Fischer rat embryo (RLV/1706) cells, Assay Type: Cell transformation, viral enhanced, Assay Code: CTR+, Evaluation Type: Evaluation A (Pre-1980)) was “active; positive” and the mutagenic call (Species/Cell Type: Human diploid fibroblasts, Assay Type: Unscheduled DNA synthesis (UDS) in vitro, DNA effects, Assay Code: UDHT, Evaluation Type: Evaluation A (Pre-1980)) was “no conclusion”. For the same compound, the mutagenic call (Species/Cell Type: Human lymphocytes, Assay Type: Sister-chromatid exchange (SCE) in vitro, Assay Code: SCL+D, Dose Response: With dose response, Evaluation Type: Evaluation B (Post-1980)) was “active; positive”, the mutagenic call (Species/Cell Type: Human, Assay Type: Sister-chromatid exchange (SCE) in vitro, Assay Code: SC1+D, Dose Response: With dose response, Evaluation Type: Evaluation B (Post-1980)) was “active; positive” and the mutagenic call (Species/Cell Type: Human, Sex: Male, Assay Type: Sperm morphology, Assay Code: SPHT, Evaluation Type: Evaluation A (Pre-1980)) was “no conclusion”. The mutagenic call (Species/Cell Type: Mammalian polychromatic erythrocytes, Assay Type: Micronucleus test, chromosome aberrations, Assay Code: MNT+, Evaluation Type: Evaluation A (Pre-1980)) was “active; positive”, the mutagenic call (Species/Cell Type: Mouse (BALB/c-3T3) cells, Assay Type: Cell transformation, Assay Code: CTB-, Evaluation Type: Evaluation A (Pre-1980)) was “inactive; negative” and the mutagenic call [7] was “active; positive”. The mutagenic call (Species/Cell Type: Mouse, Sex: Male, Assay Type: Sperm morphology, Assay Code: SPIT, Evaluation Type: Evaluation A (Pre-1980)) was “no conclusion”, the mutagenic call (Species/Cell Type: Neurospora crassa, Assay Type: Aneuploidy, chromosome aberrations, Assay Code: NEN-, Evaluation Type: Evaluation A (Pre-1980)) was “inactive; negative” and the call [2] was “active; positive”. The mutagenic call [8] was “active; positive”, the mutagenic call (Species/Cell Type: Nonhuman, Assay Type: Sister-chromatid exchange (SCE) in vitro, Assay Code: SC2-, Evaluation Type: Evaluation A (Pre-1980)) was “inactive; negative” and the mutagenic call (Species/Cell Type: Nonhuman, Assay Type: Sister-chromatid exchange (SCE) in vivo, Assay Code: SC3+, Evaluation Type: Evaluation B (Post-1980)) was “active; positive”. The mutagenic call [9] was “inactive; negative”, the mutagenic call (Species/Cell Type: Salmonella typhimurium, Assay Type: Forward and reverse gene mutation, body fluid assay, Assay Code: BFU-, Evaluation Type: Evaluation A (Pre-1980)) was “inactive; negative” and the mutagenic call (Species/Cell Type: Syrian hamster embryo (SHE) cells, Assay Type: Cell transformation, clonal assay, Assay Code: CTCT, Evaluation Type: Evaluation A (Pre-1980)) was “no conclusion”. The mutagenic call (Species/Cell Type: Tradescantia species, Assay Type: Gene mutation, Assay Code: TRM+D, Dose Response: With dose response, Evaluation Type: Evaluation A (Pre-1980)) was “active; positive”.
